In ChEMBL document CHEMBL3580595, “Design, synthesis and biological evaluation of novel trimethylpyrazine-2-carbonyloxy-cinnamic acids as potent cardiovascular agents” (Medchemcomm, 2014):

Tests used:
[1] = Anti-platelet activity in rabbit platelet-rich plasma assessed as inhibition of ADP-induced platelet aggregation at 100 uM incubated for 5 mins at 37 degC by aggregometry; assay type: functional; settings: Oryctolagus cuniculus
[2] = Anti-platelet activity in rabbit platelet-rich plasma assessed as inhibition of ADP-induced platelet aggregation at 50 uM incubated for 5 mins at 37 degC by aggregometry; assay type: functional; settings: Oryctolagus cuniculus
[3] = Anti-platelet activity in rabbit platelet-rich plasma assessed as inhibition of ADP-induced platelet aggregation at 25 uM incubated for 5 mins at 37 degC by aggregometry; assay type: functional; settings: Oryctolagus cuniculus
[4] = Anti-platelet activity in rabbit platelet-rich plasma assessed as inhibition of ADP-induced platelet aggregation at 12.5 uM incubated for 5 mins at 37 degC by aggregometry; assay type: functional; settings: Oryctolagus cuniculus
[5] = Anti-platelet activity in rabbit platelet-rich plasma assessed as inhibition of ADP-induced platelet aggregation incubated for 5 mins at 37 degC by aggregometry; assay type: functional; settings: Oryctolagus cuniculus
[6] = Cytoprotective activity against H2O2-induced cytotoxicity in human EAhy926 cells at 100 uM pre-incubated for 24 hrs before H2O2 challenge for 12 hrs by MTT assay; assay type: functional, EA.hy 926
[7] = Cytoprotective activity against H2O2-induced cytotoxicity in human EAhy926 cells at 50 uM pre-incubated for 24 hrs before H2O2 challenge for 12 hrs by MTT assay; assay type: functional, EA.hy 926
[8] = Cytoprotective activity against H2O2-induced cytotoxicity in human EAhy926 cells at 25 uM pre-incubated for 24 hrs before H2O2 challenge for 12 hrs by MTT assay; assay type: functional, EA.hy 926
[9] = Cytoprotective activity against H2O2-induced cytotoxicity in human EAhy926 cells at 12.5 uM pre-incubated for 24 hrs before H2O2 challenge for 12 hrs by MTT assay; assay type: functional, EA.hy 926
[10] = Cytoprotective activity against H2O2-induced cytotoxicity in human EAhy926 cells pre-incubated for 24 hrs before H2O2 challenge for 12 hrs by MTT assay; assay type: functional, cell-based; settings: EA.hy 926

Row | SMILES | inhibition at 100 µM [1] | inhibition at 50 µM [2] | inhibition at 25 µM [3] | inhibition at 12.5 µM [4] | IC50 [5] | Activity [6] | Activity [7] | Activity [8] | Activity [9] | EC50 [10]
1 | O=C(O)/C=C/c1ccccc1O [O-COUMARIC ACID] | 42.9% | 30.5% | 21.4% | 10.8% | 116 µM |  |  |  |  | 
2 | O=C(O)/C=C/c1ccc(O)cc1 [COUMARIC ACID] | 54.5% | 53.2% | 29.9% | 17.2% | 74.8 µM |  |  |  |  | 
3 | CCOC(=O)/C=C/c1cc(OC)c(O)c(OC)c1 |  |  |  |  |  | 69.1% | 32% | 24.9% | 4.9% | 67.2 µM
4 | Cc1nc(C)c(C)nc1C [LIGUSTRAZINE] | 19.6% | 15.3% | 8.6% | 3.4% | 265 µM | 40.9% | 22.1% | 13.6% | 11.4% | 83.4 µM
5 | Cc1nc(C)c(C(=O)Oc2cccc(/C=C/C(=O)O)c2)nc1C | 8.2% | 28% | 38.5% | 73.4% | 26.4 µM | 103% | 75.3% | 64.3% | 61.6% | 24 µM
6 | CCOC(=O)/C=C/c1ccccc1OC(=O)c1nc(C)c(C)nc1C | 42.4% | 39% | 16.6% | 11.8% | 110 µM | 40.9% | 36.9% | 17.8% | 9.6% | 108 µM
7 | COc1ccc(OC(=O)c2nc(C)c(C)nc2C)c(/C=C/C(=O)O)c1 | 59.8% | 48.8% | 46.5% | 43.4% | 49 µM | 79.2% | 62.9% | 45% | 21.7% | 48.6 µM
8 | Cc1nc(C)c(C(=O)Oc2ccc(Cl)cc2/C=C/C(=O)O)nc1C | 74.5% | 37% | 38.1% | 30% | 57.2 µM | 52.2% | 23.7% | 26% | 6.9% | 95.2 µM
9 | CCOC(=O)/C=C/c1ccc(OC(=O)c2nc(C)c(C)nc2C)cc1 | 20.5% | 32.2% | 39.1% | 68% | 24.4 µM | 96.1% | 62.6% | 58.8% | 42.7% | 34.9 µM
10 | CCOC(=O)/C=C/c1ccc(O)c(OC)c1 [ETHYL FERULATE] | 26.5% | 17.9% | 11.5% | 4% | 193 µM |  |  |  |  | 
11 | CCOC(=O)/C=C/c1cc(OC)ccc1OC(=O)c1nc(C)c(C)nc1C | 60.7% | 72.9% | 73.9% | 70.5% | 196 µM | 46.2% | 27.8% | 23.4% | 15.9% | 105 µM
12 | O=C(O)/C=C/c1ccc(Cn2ccnc2)cc1 [OZAGREL] | 36.8% | 25% | 4.8% | 6.4% | 144 µM |  |  |  |  | 
13 | CCOC(=O)/C=C/c1ccc(OC(=O)c2nc(C)c(C)nc2C)c(OC)c1 | 64.4% | 49.9% | 37.2% | 31% | 58.4 µM | 71.6% | 69.7% | 53.3% | 52.4% | 38.6 µM
14 | COC(=O)[C@H](c1ccccc1Cl)N1CCc2sccc2C1 [CLOPIDOGREL] | 94.5% | 92.3% | 77.6% | 86.9% | 7.6 µM |  |  |  |  | 
15 | Cc1nc(C)c(C(=O)Oc2ccc(/C=C/C(=O)O)cc2)nc1C | 25.3% | 41.7% | 53.3% | 64.3% | 37.8 µM | 93.2% | 74.1% | 46.6% | 34.2% | 38 µM
16 | COc1ccc(/C=C/C(=O)O)c(OC(=O)c2nc(C)c(C)nc2C)c1 | 40.9% | 34.1% | 35.1% | 16.5% | 134 µM | 18% | 31.6% | -52.1% | 39.7% | 115 µM
17 | CCOC(=O)/C=C/c1ccc(O)cc1 [ETHYL P-COUMARATE] | 37.9% | 25.5% | 16.4% | 5.8% | 130 µM |  |  |  |  | 
18 | CCOC(=O)/C=C/c1cc(OC)c(OC(=O)c2nc(C)c(C)nc2C)c(OC)c1 | 59.5% | 55.9% | 47.2% | 44% | 37.5 µM | -47% | -13.6% | 20.9% | 96.6% | 21.4 µM
19 | CCOC(=O)/C=C/c1cc(Cl)ccc1OC(=O)c1nc(C)c(C)nc1C | 61.7% | 44.4% | 36.9% | 26.3% | 67.1 µM | 11% | 33.7% | 62.5% | 64.9% | 36.1 µM
20 | CCOC(=O)/C=C/c1ccc(O)c(O)c1 [ETHYL CAFFEATE] |  |  |  |  |  | 146.9% | 134.8% | 88.4% | 80.4% | 11.6 µM
21 | O=C(O)/C=C/c1ccc(O)c(O)c1 [CAFFEIC ACID] |  |  |  |  |  | 155.6% | 149.5% | 108.5% | 16.7% | 12.6 µM
22 | O=C(O)CCCCC1CCSS1 (stereo not drawn) [LIPOIC ACID, ALPHA] |  |  |  |  |  | 58.1% | 48.7% | -12.3% | 30.5% | 68 µM
23 | COc1ccc(/C=C/C(=O)O)cc1O [ISOFERULIC ACID] |  |  |  |  |  | 81.9% | 62.9% | 36.8% | 34.9% | 29.3 µM
